Reference: the METLIN SMRT retention time set (Domingo-Almenara et al. 2019)

Assay: gradient 5% acetonitrile 3 min, to 50% in 2 min, to 85% in 15 min, held 3 min, 100 µL/min
Details: column: Zorbax Extend-C18 2.1 x 50 mm; eluents: water / acetonitrile, 0.1% formic acid
How it was run: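 Values are retention times taken from adduct peaks that software picked and an analyst inspected. The pure standards were run as mixtures of ~100 molecules on HPLC linked to a quadrupole time-of-flight mass spectrometer, in positive and negative ionization mode. A Zorbax Extend-C18 column (2.1 × 50 mm, 1.8 μm) was used at 100 μL/min with water and acetonitrile, each including 0.1% formic acid.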

| Structure (SMILES) | RP-LC retention time [s] |
| --- | --- |
| CCOc1ccc(NC(=O)N2C[C@@H](F)C[C@H]2C(=O)N2CCc3ccccc3C2)cc1 | 776 |
| Fc1ccc(-c2nc(-c3ccc4nncn4c3)no2)cc1 | 810 |
| CCn1cc(S(=O)(=O)N2CCCCC2c2nc(-c3cccnc3)n[nH]2)cn1 (stereo unspecified) | 615 |
| CCCNC(=O)Cn1cc(C(=O)Nc2ccc(Cl)cc2)c(=O)c2ccc(C)nc21 | 962 |
| O=C(Nc1ccc(Cl)cc1)c1c(O)c2cccnc2n(Cc2ccccc2)c1=O | 1290 |
| CCOC(=O)c1ccccc1NC(=O)CSc1nnc(NC(=O)C(C)(C)C)s1 | 929 |
| COc1cccc(NC(=O)Cn2nc3n(c2=O)CCCCC3)c1 | 668 |
| COc1ccc(-c2nc(NCCCN3CCN(C)CC3)c3ccccc3n2)cc1 | 828 |
| O=C(Nc1cccc(C(F)(F)F)c1)Nc1cc(Cl)ccc1C(=O)O | 1080 |
| CC(C)c1nnc2ccc(N3CCCC3)nn12 | 819 |
| CCOc1ccc(NC(=O)N2CCC(CN3CCCC(C)C3)CC2)cc1 (stereo unspecified) | 639 |
| CCC(C(=O)N1CCN(c2ccccn2)CC1)n1nc(C)c2nn(-c3ccccc3)c(C)c2c1=O (stereo unspecified) | 669 |
| Cc1cc(S(=O)(=O)N2C[C@@H](F)C[C@H]2C(=O)N2CCc3ccccc3C2)ccc1Cl | 1020 |
| Cc1ccc(C)c(N2CCN(C(=O)c3ccc4c(c3)NC(=O)C3CCCCN43)CC2)c1 (stereo unspecified) | 1050 |
| CCCNC(=O)c1ccc2nc(CCc3ccc(NC(=O)CCC)cc3)[nH]c2c1 | 617 |
| Cc1cccc(-c2nnc(-c3cc(S(=O)(=O)N4CCCC4)ccc3Cl)o2)c1 | 1110 |
| Cc1ccccc1NC(=O)Cn1nc(C(=O)N2CCOCC2)c2ccccc21 | 735 |
| Cc1c(C(=O)N2CCSCC2)cnn1-c1cc(-c2nc(C(C)(C)C)no2)ccn1 | 1070 |
| CCNc1cc(N2CCC(CCC(=O)N3CCC(COC)CC3)CC2)ncn1 | 631 |
| CSc1cccc(NC(=O)CSc2nnc3c4cc(-c5ccc(C)c(C)c5)nn4ccn23)c1 | 1030 |
| CCOC(=O)c1c(NCCc2cccs2)c2ccc(Cl)cc2[nH]c1=O | 821 |
| CCc1ccccc1NC(=O)Cn1nc2cc(C)nc(-c3ccccc3)n2c1=O | 854 |
| O=C1NC2(CCN(C(=O)c3ccc4ccccc4c3)CC2)N=C1c1ccccc1 | 859 |
| CCN1CCn2cc(S(=O)(=O)Nc3ccc(F)cc3C)cc2C1=O | 730 |
| CCCNC(=O)CCC1CCN(c2cc(NC3CC3)ncn2)CC1 | 600 |
| Cc1ccc(-c2coc(-c3ccc(NC(=O)NCc4ccc(F)cc4)cc3)n2)c(C)c1 | 1180 |

| Structure (SMILES) | RP-LC retention time [s] |
| --- | --- |
| CCc1cccc(NC(=O)C2CCCN(c3cc(=O)n(C)c(=O)n3C)C2)c1 (stereo unspecified) | 794 |
| Cc1cc2nn(CC(=O)NCc3ccccc3)c(=O)n2c(Nc2ccc(C)c(F)c2)n1 | 1060 |
| Cc1cc(C(=O)NC2CCCCC2)nn1C | 755 |
| Cc1ccc2c(c1)N(S(C)(=O)=O)CCC(C(=O)Nc1ccc(C)c(Cl)c1)O2 (stereo unspecified) | 1090 |
| C=CCNc1c(C(=O)OC)c(=O)[nH]c2ccc(F)cc12 | 679 |
| Cc1ccc(-c2nnc(Cc3nc(-c4cccc(C(F)(F)F)c4)no3)o2)cc1C | 1220 |
| Cc1ccccc1NC(=O)CN1C(=O)CCc2cc(Br)ccc21 | 884 |
| COc1cccc(S(=O)(=O)N2CCC3(CC2)NCCCN=C3NC2CCCCC2)c1 | 759 |
| CC1=NS(=O)(=O)N(C)C=C1C(=O)OCc1ccccc1C | 616 |
| Cc1csc(-c2ccc(N3CCN(C(=O)c4ccncc4)CC3)nc2)n1 | 632 |
| Cc1ccccc1Nc1c(-c2ccc(N(C)C)cc2)nc2ncccn12 | 725 |
| Cc1cc(-c2nnc(-c3ccccc3)o2)c(C)n1CC(=O)Nc1ccc(Cl)cc1 | 1020 |
| CN(C)c1cccc(-c2nc(-c3cn(-c4cccc(F)c4)nn3)no2)c1 | 1110 |
| CCCOc1ccc(CN2C[C@@H](CO)[C@H](c3ccncc3)C2)cc1OC | 557 |
| CNC(=O)c1cc(N2CCN(C)CC2)nc2c(C)cccc12 | 601 |
| Cc1nn(CC(=O)NC2CCCCCC2)c(=O)c2nn(-c3ccccc3)c(C)c12 | 822 |
| CCn1nc(C)n2cc(S(=O)(=O)NCc3ccc(Cl)cc3)cc2c1=O | 904 |
| Cc1cc(N2CCN(C)CC2)nc2ccc(NC(=O)NCCc3ccccc3)cc12 | 614 |
| COc1ccc(S(=O)(=O)N2CCCC2C(N)=O)cc1 (stereo unspecified) | 593 |
| O=c1cc(-c2ccncc2)nc(N2CCCC2)n1Cc1ccccc1 | 1200 |
| Cc1[nH]c(C(=O)N2CCCC(C(=O)N3CCN(c4ccccc4)CC3)C2)c(C)c1C(=O)OC(C)C (stereo unspecified) | 892 |
| CCN1C(=O)NC(c2ccccc2Cl)C2=C1CN(C(C(=O)N1CCCC1)C(C)C)C2=O (stereo unspecified) | 680 |
| O=C(Cc1cccs1)N1CCC2(CC1)OCCN2S(=O)(=O)c1ccccc1 | 783 |
| Cc1ccc(-n2nc(C)c3sc(N(C)CC(=O)N4CCN(c5ccccn5)CC4)nc32)cc1 | 709 |
| O=C(c1ccc(F)cc1)N1CCC(CCNS(=O)(=O)c2ccc(F)cc2F)CC1 | 809 |

Next, values leading:

| RP-LC retention time [s] | Structure (SMILES) |
| --- | --- |
| 987 | CCn1c(=O)c(N2CCN(C(=O)Nc3ccccc3Cl)CC2)nc2ccccc21 |
| 806 | CC1CCc2[nH]nc(C(=O)NC3CCCC3)c2C1 (stereo unspecified) |
| 934 | Cc1noc(-c2ccc(OC3CN(C(=O)C(C)c4ccccc4)C3)cc2)n1 (stereo unspecified) |
| 863 | COc1ccc(S(=O)(=O)N2CCC(C(=O)NCCc3csc(-c4cccs4)n3)CC2)cc1 |
| 973 | CCN1C(=O)CCc2cc(NS(=O)(=O)c3cc(F)ccc3F)ccc21 |
| 645 | Cc1cc(OCC(=O)NCc2ccc(Cl)cc2)nc(N2CCCC2)n1 |
| 723 | CCN(CC)c1ccc(NC(=O)Cn2cnc3c(sc4nc(-c5ccccc5)ccc43)c2=O)c(C)c1 |
| 638 | CC(C)c1ccc(N2C(=O)CC(N3CCC(C(N)=O)CC3)C2=O)cc1 (stereo unspecified) |
| 730 | CCCn1cc(SCC(N)=O)c2ccccc21 |
| 532 | CCN(CC)C(=O)Cn1nc2ncccn2c1=O |
| 706 | COc1ccc(NC(=O)C2(CCO)CCN(c3ncccn3)C2)cn1 (stereo unspecified) |
| 836 | O=C1CCCC(=O)C1CC1C(=O)CCCC1=O |
| 611 | CC(C)C(=O)Nc1ccc(C2(C(=O)NCc3ccccn3)CCC2)cc1 |
| 661 | COc1cc(-c2nc3ccc(C)cn3c2Nc2ccc(C)cc2)ccc1O |
| 665 | O=C(c1ccoc1)N1CCC(c2noc(-c3ccncc3)n2)C1 (stereo unspecified) |
| 1160 | CC1CCc2onc(C(=O)Nc3cccc(Cl)c3)c2C1 (stereo unspecified) |
| 600 | Cc1ccccc1-c1cc(N2CCN(C(=O)NCC3CCCO3)CC2)ncn1 (stereo unspecified) |
| 853 | CCOC(=O)c1c(C)[nH]c(CCC(=O)NC(C)c2ccccc2)c1C (stereo unspecified) |
| 1060 | Cc1sc(NC(=O)Cn2c(=O)oc3ccccc32)nc1-c1ccc(Cl)cc1 |
| 623 | O=C(Cn1cnc2cc3c(cc21)OCCO3)Nc1ccc2c(c1)OCCO2 |

| RP-LC retention time [s] | Structure (SMILES) |
| --- | --- |
| 988 | CC(C(=O)NCCc1c[nH]c2ccccc12)C1CCN(S(=O)(=O)c2ccc(Cl)s2)CC1 (stereo unspecified) |
| 914 | CCS(=O)(=O)c1nc2ccc(NS(=O)(=O)c3cc(Cl)ccc3OC)cc2s1 |
| 879 | CC1=C(c2ccc(F)cc2)S(=O)(=O)N=C1N1CCCN(C(=O)CCC(C)C)CC1 |
| 587 | O=C(Cn1ccc2c(SCc3ccccc3)nccc21)NCCCN1CCCC1 |
| 885 | Cc1ccn(-c2ccc(C(=O)NC3CCCCC3)cn2)n1 |
| 708 | CCOC(=O)C1CCN(C(=O)CCn2c(=O)oc3ccccc32)CC1 |
| 790 | O=C1NC(Cc2c[nH]c3ccccc23)C(=O)N1c1cccc(Cl)c1 (stereo unspecified) |
| 617 | COc1ccc(-n2c(CN3CCN(C(=O)NCc4ccco4)CC3)nc3cccnc32)cc1 |
| 1170 | CCc1nc(-c2ccc(-c3noc(-c4ccco4)n3)cc2)cs1 |
| 780 | COc1ccc(-c2ccc(=O)n(Cc3nc(-c4ccccn4)no3)n2)cc1 |
| 951 | Cc1cc(NC(=O)CSc2cn(Cc3cccc(F)c3)c3ccccc23)no1 |
| 798 | CCOc1ccc(NC(=O)C2CCN(S(=O)(=O)c3ccc4c(c3)sc(=O)n4C)CC2)cc1 |
| 1100 | O=C(Nc1ccc(Cl)cc1)Nc1cccc2nsnc12 |
| 725 | Cc1cccc(NS(=O)(=O)c2cc(-c3[nH]ncc3C(=O)N3CCCC3)oc2C)c1C |
| 819 | Cc1ccc(-n2c(=O)c3c(cc(C)n3C)n(CC(=O)Nc3ccc4c(c3)OCO4)c2=O)cc1 |
| 676 | O=C1NCCCn2cc(S(=O)(=O)Nc3ccc(F)c(F)c3)cc21 |
| 560 | O=C(NCCCN1CCOCC1)C1CCc2sc(C(=O)N3CCCCCC3)cc2C1 (stereo unspecified) |
| 577 | Cc1cc(N(C)C)n2nc(CN(C)Cc3ccccc3)nc2n1 |
| 1040 | CCOC(=O)c1nnn(-c2ccc(OCC)cc2)c1C(=O)OCC |
| 634 | Cc1ccc(NC(=O)N2CCN(c3cnn4c(C)nnc4c3)CC2)c(C)c1 |
